In US12370170B2, “Composition comprising naphthoquinone-based compound as active ingredient, for preventing or ameliorating fatigue, cachexia, pain, cognitive decline and hematopoietic stem cell reduction which are side effects related to anticancer drug treatment” (NADIANBIO LTD., priority 2016, dated 2025):

Key:
Type in all cases: in vivo, C57BL/6 mice
[1] = tested on: inflammatory cytokines TNF-α, IL-1β, IL-6 and IL-17; assay: Plasma inflammatory cytokines by ELISA in adriamycin animal model; conditions: adriamycin 4 mg/kg/day i.p. ×3; compound 20 mg/kg oral daily from 3 days before; 4 days after final adriamycin; vs adriamycin group
Experimental: (§1) In this invention, 11 weeks old C57BL/6 mice were used. All the mice used in the experiments of the invention were raised in an aseptic animal room at the temperature of 22˜26 L with the humidity of 55˜60%. The mice were allowed to take general solid feed (SAMTACO Co., Ltd., Korea) and water freely. The mice were adapted for 1 week before the experiment. All the experiments were performed after obtaining approval from the clinical trial management committee in accordance with the laboratory animal care and ethics regulations of Wonkwang University. The mouse animal model of the present invention was treated with different anticancer drugs. […]
Particularly, plasma was isolated from the adriamycin animal model prepared by the same manner as described in Example 4, and the inflammatory cytokines TNF-α (R&D Systems, MTA00B), IL-1β (R&D Systems, MLB00C), IL-6 (R&D Systems, M6000B) and IL-17 (R&D Systems, M1700) were analyzed by ELISA (enzyme-linked immunosorbent assay).
To investigate the regulatory effect of β-lapachone on adriamycin induced inflammatory cytokines, plasma was isolated from the adriamycin animal model prepared by the same manner as described in Example 4, and the inflammatory cytokines TNF-α, IL-1β, IL-6 and IL-17 were analyzed by ELISA.

[2] = Muscle loss (body weight, gastrocnemius muscle weight) in cyclophosphamide induced animal model; conditions: cyclophosphamide 150 mg/kg+200 mg/kg i.p.; dunnione 20 mg/kg oral daily from 3 days before; 48 hours after
Experimental: as §1, with “drugs. Particularly, one kind of anticancer drug was administered intraperitoneally one time or more, or several kinds of anticancer drugs were administered once or more times or at different concentrations, leading to the establishment of the animal model of the invention.” for “drugs.”
In the cyclophosphamide (150 mg/kg+200 mg/kg) induced animal model prepared by the same manner as described in Example 9, the changes of body weight and gastrocnemius muscle weight were measured after the drug treatment in order to investigate the regulatory effect of dunnione on muscle loss.

[3] = tested on: F4/80 positive cells (macrophages); assay: Inflow of macrophages into femur, F4/80 immunohistostaining, 4×ACP animal model; conditions: dunnione 80 mg/kg oral
Experimental: as §1, with “drugs. Particularly, one kind of anticancer drug was administered intraperitoneally one time or more, or several kinds of anticancer drugs were administered once or more times or at different concentrations, leading to the establishment of the animal model of the invention. In the adriamycin-induced animal model, the mice were divided into 6 groups as follows: the control group administered with PBS (Control, 5 mice), the group administered intraperitoneally with adriamycin (4 mg/kg/day) 3 times (ADR, 5 mice), the group administered orally with dunnione or β-lapachone from 3 days before the adriamycin treatment daily (20 mg/kg, 5 mice), and the group administered with dunnione or β-lapachone (20 mg/kg, 5 mice).” for “drugs.”

[4] = tested on: inflammatory cytokines TNF-α, IL-1β, IL-6 and IL-17; assay: Plasma inflammatory cytokines by ELISA in 3× and 6×ACP animal model; conditions: dunnione 20 mg/kg oral daily from 3 days before, 3 days after ACP
Experimental: as §1, with “drugs. Particularly, one kind of anticancer drug was administered intraperitoneally one time or more, or several kinds of anticancer drugs were administered once or more times or at different concentrations, leading to the establishment of the animal model of the invention.” for “drugs.”
Plasma was isolated from the 3× and 6×ACP animal model prepared by the same manner as described in Example 7, and the inflammatory cytokines TNF-α, IL-1β, IL-6 and IL-17 were analyzed by ELISA.

CC1OC2=C(C(=O)C(=O)c3ccccc32)C1(C)C (stereo not drawn) [dunnione, 2,3-dihydro-2,3,3-trimethyl naphtho [1,2-b]furan-4,5-dione]
level of inflammatory cytokines (TNF-α, IL-1β, IL-6, IL-17) in plasma [1]: significantly reduced | reduction of gastrocnemius muscle weight and gastrocnemius muscle weight change [2]: significantly restored | weight loss (body weight) [2]: significantly restored | increased F4/80 positive cells in the bone (femur) [3]: significantly reduced | level of inflammatory cytokines (TNF-α, IL-1β, IL-6, IL-17) in plasma ([4]; 3×ACP i.p. once): significantly inhibited | level of inflammatory cytokines (TNF-α, IL-1β, IL-6, IL-17) in plasma ([4]; 6×ACP i.p. once): significantly inhibited
